# Test results from patent publication US11759434B2, “Methods and compositions for treating melanoma and non-melanoma skin cancers” (Sytheon Limited, priority 2022, dated 2023).
# Experiments:
# [1] = tested on: Trametinib resistant human, NRAS mutated, WM1366 melanoma cells; experiment: MBPD/Trametinib synergy, cell viability (Alamar blue); type: cell-based
# Description: Specifically, Trametinib resistant human, NRAS mutated, WM1366 melanoma cells were created in-house by sequentially treating the cells with various concentrations (2 nM-10 nM) of Trametinib for several weeks. Those cells which survived 2 nM Trametinib after two weeks, were then incubated with 4 nM Trametinib and those that survived 4 nM Trametinib for two weeks were isolated and then incubated with 10 nM for several weeks. This led to development of resistance in the WM1366 cells.
# In this study, the Trametinib resistant cells were seeded into black walled 96 well plates (cat. no.—165305, thermo), ˜1000 cells per well employing the same media as noted in Example 1. On Day 2, the cells were treated with 125 or 62.5 μg/ml MBPD and incubated for 48 hours. After 48 hours, fresh cell-culture medium was added with MBPD and Trametinib at concentrations of 30, 15, 7.5, 3.75, 1.875, and 0.9375 nM and the cells allowed to sit for 72 hours. On Day 7, Alamar blue (cat. no. A50101, invitrogen) was added to each well and the cultures incubated for 1 hr in a CO2 incubator. Thereafter, the dye was replaced with 100 ul PBS (Cat no. 14190-144, Gibco) and cell viability as evidenced by fluorescence was recorded (by Biotek synergy/H1 microplate reader) at 560/590 nm.
# Molar (M) IC50 values were calculated using formula weight of each of the compounds individually.
# [2] = tested on: Normal, C57BL/6 mouse melanocytes, darkly pigmented; experiment: Cell viability (Alamar blue) in normal melanocytes; type: cell-based; conditions: Melanocyte, 72 h, 3 days treatment, 4 biological repeats
# Description: (§1) In support of the present teachings several experiments were conducted to assess the cytotoxicity of compound 1 (Acetyl Zingerone CAT), available as Synoxyl® AZ from Sytheon Ltd.) and Compound 4, its mono-methoxy analog (3-(4-Methoxy-benzyl)-pentane-2,4-dione (MBPD)), towards normal melanocytes (Normal, C57BL/6 mouse melanocytes, darkly pigmented), and patient derived, NRAS-mutated melanoma cells. On Day 1, the melanoma cells and normal melanocytes were seeded into the black walled 96 well plates (cat. no.—165305, thermo), ˜1000 cells per well and allowed to stand for one day. […] Thereafter, the dye was replaced with 100 ul PBS (Cat. no. 14190-144, Gibco) and cell viability as evidenced by fluorescence was recorded (by Biotek synergy/H1 microplate reader) at 560/590 nm. Cell survival was calculated by subtracting the background (media only) and then normalizing those results with the results obtained from the cells that were not treated with AZ or MBPD. […]
# [3] = tested on: patient derived, NRAS-mutated melanoma cells; experiment: Cell viability (Alamar blue) in melanoma cells; type: cell-based, human; conditions: 3 days treatment, 3 biological repeats
# Description: as §1
# [4] = tested on: AMPK; experiment: AMPK activation study (phosphorylation of AMPK at Thr-172) in epidermal keratinocytes; type: cell-based, human; conditions: for AMPK-P/Protein Ratio: two hours
# Description: (§2) AMPK activation is a known and efficacious treatment for melanoma and non-melanoma skin cancer (See. e.g., Chen. L. et. al., “AMPK Activation by GSK621 Inhibits Human Melanoma Cells In Vitro and In Vivo”, Biochemical and Biophysical Research Communications 480 (2016), 515-521). To ascertain the ability and efficacy of the compounds of Structure 1 to activate AMPK, a cell assay study was undertaken. In the study, human epidermal keratinocytes were grown using EpiLife Media (60 μM calcium) supplemented with 0.2% v/v bovine pituitary extract, 1 μg/ml recombinant human insulin-like growth factor-I, 0.18 μg/ml hydrocortisone, 5 μg/ml bovine transferrin, 0.2 ng/ml human epidermal growth factor. The cells were grown at 37±2° C. and 5±1% CO2. The keratinocytes were seeded into 96-well plates and cultured overnight to allow the cells to adhere to the well plates. Prior to experimental use, the growth media was replaced with basal media (unsupplemented EpiLife Media) for five hours prior to starting any treatments.
# The ability of the test material to activate AMPK was determined by measuring the phosphorylation of AMPK. The epidermal keratinocytes were treated with the test material prepared in basal media for two hours. At the end of the two-hour incubation the culture media was removed and the cells were fixed in 4% formaldehyde for 20 minutes at room temperature. After the fixation, the cells were washed three times with wash solution (1 minute per wash) and any endogenous peroxidase activity was quenched by adding 100 ul of a 0.3% H2O2 solution to the wells and incubating the plate for another 20 minutes. After washing as described above, non-specific antibody binding was blocked by adding 200 ul of blocking buffer to each well and incubating the plate for 1 hour at room temperature. […] After this incubation the well plate was read using a fluorometer at 530ex/590em to determine AMPK phosphorylation and at 360ex/485em to determine total cellular protein.
# [5] = tested on: human epidermal keratinocytes; experiment: MTT assay (cell viability) after H2O2-induced senescence; type: cell-based
# Description: as §2
# (§3) The foregoing effect of AZ as an AMPK activator and, in turn, anti-melanoma treatment is especially surprising in light of the pro-viability effect of AZ in normal cells, even those in senescence. Specifically, following on the foregoing experimental methodology, additional studies were conducted on the human keratinocytes cells to assess AZ's impact on cell viability as evidenced by an MTT assay as well as an assessment of its impact on SA-B-Gal activity. In these studies, the human epidermal keratinocytes were treated in basal media for two hours with the test material and then treated with either 50 uM or 100 uM H2O2 in basal media for an additional two hours: the latter treatment to induce senescence. Following the H2O2 treatment, the cells were placed in with fully supplemented EpiLife media for either 16 hours after which changes in cell viability was evaluated via an MTT assay or for 3 days after which changes in the cellular senescence marker beta galactosidase (SA-B-GAL) was evaluated.
# MTT Calculation: the mean MIT absorbance value for untreated cells not exposed to H2O2 was calculated and used to represent 100% cell viability. The individual MIT values from the cells undergoing the various treatments was then divided by the mean value for the untreated cells not exposed to H2O2 and expressed as a percent to determine the change in cell viability caused by each treatment.
# [6] = tested on: Senescent Associated β-Galactosidase (SA-B-Gal); experiment: Senescent Associated β-Galactosidase (SA-B-Gal) activity assay; type: cell-based, human; conditions: 3 days
# Description: as §2, §3
# SA-B-GAL Calculation: To determine the changes in SA-B-GAL expression a direct measure of SA-B-GAL activity was used. At the end of the three-day incubation the media was removed, 100 ul of ice-cold cell lysis buffer was added and the cells were lysed for 5 minutes at 4° C. At the end of this lysis procedure a portion of the lysate was used for a protein assay while 50 ul of the cell lysate was transferred to a new well plate and combined with an equal volume of SA-B-GAL reaction buffer containing a fluorescent substrate. This well plate was then incubated for 3 hours at 37° C., after which a 50 ul sample of the reaction was combined with 200 ul of stop solution in a new well plate and the plate was read using a fluorometer (360ex/485em), The fluorescence intensity was then normalized to cellular protein and this ratio was used as an index of SA-B-GAL activity.
compound,measurement,setting,value
"CC(=O)Nc1cccc(-n2c(=O)n(C3CC3)c(=O)c3c(Nc4ccc(I)cc4F)n(C)c(=O)c(C)c32)c1 [Trametinib, trametinib, reference compound]",IC50,"[1]; Homo sapiens, in-house generated, Trametinib resistant, NRAS-mutated melanoma cells",0.01 to 0.02 µM
"COc1ccc(CC(C(C)=O)C(C)=O)cc1 [MBPD, 3-(4-Methoxy-benzyl)-pentane-2,4-dione]",IC50,[2],14400 µM
same,IC50,"[3]; Homo sapiens, 72 h",400 µM
same,reduction of the Trametinib IC50 by MBPD,"[1]; 125 or 62.5 μg/ml MBPD, 48 h pre-incubation then MBPD plus Trametinib 72 h, 2 biological repeats",~5 fold
"COc1cc(CC(C(C)=O)C(C)=O)ccc1O [AZ, Acetyl Zingerone]",IC50,[3],1300 µM
same,AMPK-P/Protein Ratio,[4]; 25 μg/ml,4.16 ± 0.65
same,increase of AMPK activity,[4]; 50 μg/ml,88.3%
same,AMPK-P/Protein Ratio,[4]; 50 μg/ml,6.48 ± 1.10
same,Viability (% of non-H2O2 exposed cells),"[5]; 12.5 μg/ml, 50 μM H2O2",79.9 ± 11.5%
same,Viability (% of non-H2O2 exposed cells),"[5]; 12.5 μg/ml, 100 μM H2O2",79.1 ± 1.4%
same,Viability (% of non-H2O2 exposed cells),"[5]; 25 μg/ml, 50 μM H2O2",76.1 ± 6.9%
same,Viability (% of non-H2O2 exposed cells),"[5]; 25 μg/ml, 100 μM H2O2",77.4 ± 9.6%
same,Viability (% of non-H2O2 exposed cells),"[5]; 50 μg/ml, 50 μM H2O2",100.7 ± 8.3 %
same,Viability (% of non-H2O2 exposed cells),"[5]; 50 μg/ml, 100 μM H2O2",100.2 ± 6.5%
same,SA-B-Gal Activity/Protein,"[6]; 12.5 μg/ml, 50 μM H2O2",3.45 ± 0.29
same,SA-B-Gal Activity/Protein,"[6]; 12.5 μg/ml, 100 μM H2O2",3.29 ± 0.37
same,SA-B-Gal Activity/Protein,"[6]; 25 μg/ml, 50 μM H2O2",3.30 ± 0.23
same,SA-B-Gal Activity/Protein,"[6]; 25 μg/ml, 100 μM H2O2",3.95 ± 0.36
same,SA-B-Gal Activity/Protein,"[6]; 50 μg/ml, 50 μM H2O2",0.91 ± 0.06
same,SA-B-Gal Activity/Protein,"[6]; 50 μg/ml, 100 μM H2O2",0.90 ± 0.15
